One molecule from patent publication US20110190126A1, “WEED CONTROL METHOD AND HERBICIDAL COMPOSITION” (SYNGENTA CROP PROTECTION, INC., priority 2008, published 2011) can be followed below.

For the data set, the system named is sugarcane. Put plainly: Field trials in 1.5 year plant cane: phytotoxicity (% damage) to sugarcane. The conditions noted are these: 200 g/ha. In kind it is in vivo. As to the method:
Five field trials are carried out in 1.5 year plant cane to examine the effect on sugarcane of combinations of compound of Formula I with various PS-II inhibiting herbicides. Plot sizes are 20 m^2 and results shown are the average of 3 replicate treatments.

The structures appear in SMILES notation.

Regarding `COCCOCc1nc(C(F)(F)F)ccc1C(=O)C1=C(O)C2CCC(C2)C1=O` (stereo not shown) [Formula I], the “% Damage (Average of three trials).” value was determined as 8%.
